Test results published in the supplement of paper PMC4862054.

What was measured:
Settings in all cases: incubation time: 72 h
[1] = tested on: MFM-223; assay: normalised response (% of control), CellTox Green; higher = less cell death (100 = DMSO, 0 = benzethonium chloride kill control)
How it was run: (§1)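 Each entry is the normalised signal at a single concentration within a series. The series comprised 5 concentrations in 10-fold steps over a compound-specific 10,000-fold range, placed in 384-well plates into which breast cancer cell lines were seeded as 20 µl suspension and incubated 72 h. CellTox Green (485/520 nm) fluorescence and then CellTiter-Glo luminescence were read, with signals normalised per plate to 0.1 % DMSO (100) and a positive kill control (0).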

[2] = tested on: Hs578T; assay: as above
How it was run: as §1

[3] = tested on: CAL-51; assay: as above
How it was run: as §1

[4] = tested on: CAL-148; assay: as above
How it was run: as §1

[5] = tested on: MDA-MB-231; assay: as above
How it was run: as §1

[6] = tested on: BT-549; assay: as above
How it was run: as §1

[7] = tested on: HCC1143; assay: as above
How it was run: as §1

[8] = tested on: CAL-120; assay: as above
How it was run: as §1

[9] = tested on: MDA-MB-436; assay: as above
How it was run: as §1

[10] = tested on: DU-4475; assay: as above
How it was run: as §1

[11] = tested on: MDA-MB-468; assay: as above
How it was run: as §1

[12] = tested on: MDA-MB-453; assay: as above
How it was run: as §1

[13] = tested on: HDQ-P1; assay: as above
How it was run: as §1

[14] = tested on: MCF-10A; assay: as above
How it was run: as §1

[15] = tested on: HCC1599; assay: as above
How it was run: as §1

[16] = tested on: HCC1937; assay: as above
How it was run: as §1

[17] = tested on: CAL-85-1; assay: as above
How it was run: as §1

[18] = tested on: BT-474; assay: as above
How it was run: as §1

[19] = tested on: MFM-223; assay: normalised response (% of control), CellTiter-Glo; higher = more viable cells (100 = DMSO, 0 = benzethonium chloride kill control)
How it was run: as §1

[20] = tested on: Hs578T; assay: as above
How it was run: as §1

[21] = tested on: CAL-51; assay: as above
How it was run: as §1

[22] = tested on: CAL-148; assay: as above
How it was run: as §1

[23] = tested on: MDA-MB-231; assay: as above
How it was run: as §1

[24] = tested on: BT-549; assay: as above
How it was run: as §1

[25] = tested on: HCC1143; assay: as above
How it was run: as §1

[26] = tested on: CAL-120; assay: as above
How it was run: as §1

[27] = tested on: MDA-MB-436; assay: as above
How it was run: as §1

[28] = tested on: DU-4475; assay: as above
How it was run: as §1

[29] = tested on: MDA-MB-468; assay: as above
How it was run: as §1

[30] = tested on: SK-BR-3; assay: as above
How it was run: as §1

[31] = tested on: MDA-MB-453; assay: as above
How it was run: as §1

[32] = tested on: HDQ-P1; assay: as above
How it was run: as §1

[33] = tested on: MCF-10A; assay: as above
How it was run: as §1

[34] = tested on: HCC1599; assay: as above
How it was run: as §1

[35] = tested on: HCC1937; assay: as above
How it was run: as §1

[36] = tested on: CAL-85-1; assay: as above
How it was run: as §1

[37] = tested on: BT-474; assay: as above
How it was run: as §1

Row | Compound | normalised response [1] | normalised response [2] | normalised response [3] | normalised response [4] | normalised response [5] | normalised response [6] | normalised response [7] | normalised response [8] | normalised response [9] | normalised response [10] | normalised response [11] | normalised response [12] | normalised response [13] | normalised response [14] | normalised response [15] | normalised response [16] | normalised response [17] | normalised response [18] | normalised response [19] | normalised response [20] | normalised response [21] | normalised response [22] | normalised response [23] | normalised response [24] | normalised response [25] | normalised response [26] | normalised response [27] | normalised response [28] | normalised response [29] | normalised response [30] | normalised response [31] | normalised response [32] | normalised response [33] | normalised response [34] | normalised response [35] | normalised response [36] | normalised response [37]
1 | CC(=O)Nc1cccc(-n2c(=O)n(C3CC3)c(=O)c3c(Nc4ccc(I)cc4F)n(C)c(=O)c(C)c32)c1 [Trametinib] (25 nM) | 101% | 113% | 113% | 108% | 66.4% | 93.6% | 116% | 87.6% | 97.2% | 64.6% | 103% | 111% | 92.3% | 81.3% | 105% | 124% | 66.6% | 102% | 94.6% | 83.2% | 105% | 90.7% | 72.1% | 107% | 72.5% | 71.7% | 91.2% | 0.42% | 88.7% | 102% | 111% | 61.2% | 35.7% | 101% | 81.3% | 68.9% | 73.5%
2 | CC1=C(/C=C/C(C)=C/C=C/C(C)=C/C(=O)O)C(C)(C)CCC1 [Tretinoin] (1000 nM) | 97.5% | 59.5% | 99% | 98.5% | 96.5% | 101% | 115% | 107% | 96.4% | 105% | 109% | 114% | 91.2% | 80.4% | 101% | 93.8% | 99.5% | 99.4% | 93.5% | 90.7% | 111% | 78.1% | 96.8% | 101% | 96.8% | 101% | 95.6% | 102% | 84.6% | 70.7% | 97.6% | 102% | 82% | 99.3% | 97.7% | 92.2% | 97%
3 | Oc1ncc(N(CCCl)CCCl)c(O)n1 [Uracil mustard] (1000 nM) | 102% | 107% | 104% | 103% | 107% | 103% | 117% | 106% | 98.7% | 105% | 120% | 112% | 113% | 102% | 96% | 102% | 115% | 101% | 98.2% | 99% | 113% | 93.9% | 96.5% | 100% | 101% | 106% | 106% | 95.4% | 104% | 100% | 104% | 105% | 118% | 108% | 93.8% | 99.3% | 104%
4 | CCCCC(=O)OCC(=O)[C@]1(O)Cc2c(O)c3c(c(O)c2[C@@H](O[C@H]2C[C@H](NC(=O)C(F)(F)F)[C@H](O)[C@H](C)O2)C1)C(=O)c1c(OC)cccc1C3=O [Valrubicin] (500 nM) | 108% | 127% | 67.6% | 56.9% | 157% | 78.4% | 150% | 118% | 131% | 117% | 276% | 131% | 131% | 113% | 134% | 167% | 144% | 106% | 108% | 88.6% | 50.3% | 30.4% | 85.4% | 64.1% | 75.5% | 86.9% | 57.5% | 52.3% | 47.1% | 41% | 120% | 81.7% | 75.6% | 102% | 77.5% | 80.3% | 83.8%
5 | CCCS(=O)(=O)Nc1ccc(F)c(C(=O)c2c[nH]c3ncc(-c4ccc(Cl)cc4)cc23)c1F [Vemurafenib] (1000 nM) | 98% | 100% | 82.6% | 101% | 97% | 116% | 91.8% | 99.7% | 65.4% | 78.9% | 127% | 104% | 73.9% | 88.2% | 90.8% | 108% | 100% | 98% | 86.4% | 103% | 88.6% | 86.4% | 94.3% | 93.1% | 95.6% | 90% | 94.2% | 35% | 86.9% | 79% | 90.7% | 94.8% | 101% | 104% | 97.3% | 92.3% | 90.8%
